Source: PMC4900628, “Critical Evaluation of P2X7 Receptor Antagonists in Selected Seizure Models” (PLoS ONE, 2016)

System: PTZ-induced generalized clonic seizures
Assay: Pentylenetetrazol seizure threshold test (PTZ-T)
Format: in vivo
Conditions: for Cases of death (within 30 min) / Latency to the first gen. Clonus / Latency to the first gen. clonus (% of control) / latency to the onset of the first clonic seizures at higher doses / Latency to the first gen. Clonus (% control): mice; for Cases of death (within 30 min): n=12; for Latency to the first gen. Clonus: mean ± SEM; for latency to the onset of the first clonic seizures at higher doses: compounds alone, PTZ 87 mg/kg s.c.
Procedure: Unrestrained mice, placed in separate full-view Plexiglas cages, were injected with the convulsant drug PTZ, a non-competitive GABAA receptor antagonist, at a dose of 87 mg/kg s.c. in the neck and the appearance of the first generalized clonus (repeated clonic seizures of the fore- and hindlimbs lasting ≥3 s with an accompanying loss of righting reflex) was recorded during individual observation for 30 min (see [69]). […] Group sizes of 12 mice were used in all experiments. Control groups, which received vehicle, were tested together with the compound-treated group on the same experimental day. The number of animals in the group with a generalized clonic seizure and the latency time to its onset were analysed for statistical significance. In the absence of seizures within 30 min, the latency was taken as 1800 s.
For the seizure tests (MES-T, PTZ-T, PTZ-kindling), BBG and TIIAS was dissolved in polyethylene glycol (PEG BioUltra, 400, Sigma-Aldrich), diluted to 20% with aqua (aqua ad iniectabilia, Braun, Melsungen, Germany). AFC was solubilized in ≥97% N,N-dimethylacetamide (DMA, Sigma-Aldrich), vortexed and diluted with 45% 2-hydroxypropyl-ß-cyclodextrin (ß-CD, Sigma-Aldrich) (final ratio of the vehicle 1:9). JNJ-47965567 was solubilized in two equivalents of 1N HCl, vortexed and sonicated (until the compound was mostly diluted) and then 30% of sulfobutylether-ß-cyclodextrin (SBE-ß-CD, Toronto Res. Chemicals, Toronto, Canada) was slowly added. The pH was adjusted with 1N NaOH (similar amount of NaOH as HCl), all with continuous stirring. PTZ was dissolved in 0.9% NaCl-solution, carbamazepine, ethosuximide and Ca-valproate were administered in a 2% (w/v) suspension of hydroxyethylcellulose. The drug solutions or suspensions were prepared immediately before use; all doses refer to the salts. Animals in the control group received equivalent volumes of the vehicle (in mice always 10 ml/kg, in rats 1 ml/kg [JNJ], 3 ml/kg [AFC] or 4 ml/kg [BBG, TIIAS], depending on the solubility of the different compounds). Doses and peak time effects were selected on the basis of effective doses from corresponding in vivo studies in the literature: BBG (e.g.), tanshinone IIA (e.g.) and from manufacturer’s experimental data: AFC, JNJ (see, [80]).
Data were analysed using SigmaPlot (vers. 12.0, Systat Software, Erkrath, Germany) and SPSS (IBM SPSS Statistics 20, Ehningen, Germany), respectively. Results are expressed as mean ± SEM. In the fluorometric Ca^2+ assays, concentration-response curves were fitted by using a 4-parameter logistic function (Hill slope, Emin, Emax, IC50). […] In the MES-T, the current intensity inducing tonic hindlimb extensions in 50% of the mice (CC50 values with confidence limits for 95% probability) and the statistical significance was calculated using Probit analysis (SPSS). In the case of multiple comparisons between different groups α-correction was performed so that only differences with a P value of < 0.01 were considered significant. In the PTZ-T, the number of animals in the group with clonic seizures and the latency time were analysed using Fisher's exact probability test and the Mann-Whitney rank sum test, respectively. For multiple comparisons of the latency time a one-way ANOVA with the Holm-Sidak post hoc test was used. The influence of AFC on the plasma and brain concentrations of the antiepileptic drugs was statistical compared using the same procedure. In the PTZ-kindling model, the mean seizure stage within a group was calculated in relation to the number of PTZ-injections. Statistical comparison between vehicle- and compound-treated groups in this model was performed with two-way repeated measures ANOVA, followed by the Holm-Sidak post hoc test. The mean number of PTZ-injections needed to produce the first generalized seizure (≥ stage 3 convulsions) in the vehicle- versus compound-treated groups was statistically compared using a Mann-Whitney rank sum test.

[1] = 30 mg/kg i.p. 45 min before PTZ 87 mg/kg s.c.
[2] = series JNJ-47965567 15 mg/kg and/or ethosuximide 100 mg/kg i.p. 30 min before PTZ 87 mg/kg s.c.
[3] = series JNJ-47965567 30 mg/kg and/or ethosuximide 100 mg/kg i.p. 30 min before PTZ 87 mg/kg s.c.
[4] = series AFC-5128 25 mg/kg and/or ethosuximide 100 mg/kg, all i.p. 30 min before PTZ 87 mg/kg s.c.
[5] = series AFC-5128 50 mg/kg and/or ethosuximide 100 mg/kg, all i.p. 30 min before PTZ 87 mg/kg s.c.
[6] = series JNJ-47965567 15 mg/kg and/or ethosuximide 100 mg/kg i.p. 30 min before PTZ, control 4.74 ± 0.64 min
[7] = series JNJ-47965567 15 mg/kg and/or ethosuximide 100 mg/kg, all i.p. 30 min before PTZ 87 mg/kg s.c.
[8] = series JNJ-47965567 30 mg/kg and/or ethosuximide 100 mg/kg i.p. 30 min before PTZ, control 6.14 ± 1.34 min
[9] = series JNJ-47965567 30 mg/kg and/or ethosuximide 100 mg/kg, all i.p. 30 min before PTZ 87 mg/kg s.c.
[10] = 50 mg/kg i.p. 45 min before PTZ 87 mg/kg s.c.
[11] = 15 mg/kg i.p. 30 min before PTZ 87 mg/kg s.c.
[12] = 30 mg/kg i.p. 30 min before PTZ 87 mg/kg s.c.

Cc1c(S(=O)(=O)[O-])oc2c1C(=O)C(=O)c1c-2ccc2c1CCCC2(C)C.[Na+] [Tanshinone TIIAS, tanshinone IIS sulfonic sodium]
# of mice/ with seizure [1]: 12/11
Cases of death (within 30 min) [1]: 0
Latency to the first gen. Clonus [1]: 10.08 ± 2.64 min
Latency to the first gen. clonus (% of control) (30 mg/kg i.p. 45 min before PTZ 87 mg/kg s.c., vehicle 5.00 ± 1.04 min): 201.6 ± 52.8%
latency to the onset of the first clonic seizures at higher doses: tended to increase the latency

CCC1(C)CC(=O)NC1=O (stereo not shown) [Ethosuximide, ethosuximide]
Cases of death (within 30 min) (series AFC-5128 25 mg/kg and/or ethosuximide 100 mg/kg i.p. 30 min before PTZ 87 mg/kg s.c.): 1
Cases of death (within 30 min) (series AFC-5128 50 mg/kg and/or ethosuximide 100 mg/kg i.p. 30 min before PTZ 87 mg/kg s.c.): 1
Cases of death (within 30 min) [2]: 0
Cases of death (within 30 min) [3]: 1
Latency to the first gen. Clonus (% control) (series AFC-5128 25 mg/kg and/or ethosuximide 100 mg/kg i.p. 30 min before PTZ, control 4.53 ± 0.56 min): 312.6 ± 65.8%
Latency to the first gen. Clonus [4]: 14.16 ± 2.98 min
Latency to the first gen. Clonus (% control) (series AFC-5128 50 mg/kg and/or ethosuximide 100 mg/kg i.p. 30 min before PTZ, control 10.83 ± 2.67 min): 200.6 ± 27.0%
Latency to the first gen. Clonus [5]: 21.72 ± 3.03 min
Latency to the first gen. Clonus (% control) [6]: 244.3 ± 75.3%
Latency to the first gen. Clonus [7]: 11.58 ± 3.57 min
Latency to the first gen. Clonus (% control) [8]: 209.0 ± 51.1%
Latency to the first gen. Clonus [9]: 12.83 ± 3.14 min
# of mice/ with seizures [4]: 12/8^+
# of mice/ with seizures [5]: 12/7^+
# of mice/ with seizures [7]: 12/8^+
# of mice/ with seizures [9]: 12/8^+

CCOc1ccc(Nc2ccc(/C(=C3C=C/C(=[N+](/CC)Cc4cccc(S(=O)(=O)[O-])c4)C=C/3C)c3ccc(N(CC)Cc4cccc(S(=O)(=O)O)c4)cc3C)cc2)cc1 [Brilliant Blue G]
# of mice/ with seizure [10]: 12/10
Cases of death (within 30 min) [10]: 2
Latency to the first gen. Clonus (50 mg/kg i.p. 45 min before PTZ 87 mg/kg s.c., P < 0.05): 13.91 ± 2.38 min
Latency to the first gen. clonus (% of control) (50 mg/kg i.p. 45 min before PTZ 87 mg/kg s.c., vehicle 6.77 ± 2.23 min): 205.5 ± 35.2%
latency to the onset of the first clonic seizures at higher doses: tended to increase the latency

O=C(NCC1(N2CCN(c3ccccc3)CC2)CCOCC1)c1cccnc1Sc1ccccc1 [JNJ-47965567, N-[[4-(4-phenyl-piperazin-1-yl)tetrahydro-2H-pyran-4-yl]-methyl]-2-(phenyl-thio) nicotinamide]
# of mice/ with seizure [11]: 12/12
# of mice/ with seizure [12]: 12/10
Cases of death (within 30 min) [11]: 2
Cases of death (within 30 min) [12]: 1
Cases of death (within 30 min) [2]: 3
Cases of death (within 30 min) [3]: 1
Latency to the first gen. Clonus [11]: 7.31 ± 2.19 min
Latency to the first gen. clonus (% of control) (15 mg/kg i.p. 30 min before PTZ 87 mg/kg s.c., vehicle 6.94 ± 1.31 min): 105.3 ± 31.6%
Latency to the first gen. Clonus [12]: 13.66 ± 2.94 min
Latency to the first gen. clonus (% of control) (30 mg/kg i.p. 30 min before PTZ 87 mg/kg s.c., vehicle 7.13 ± 1.49 min): 191.6 ± 41.2%
latency to the onset of the first clonic seizures at higher doses: tended to increase the latency
Latency to the first gen. Clonus (% control) [6]: 109.4 ± 25.1%
Latency to the first gen. Clonus [7]: 5.19 ± 1.19 min
Latency to the first gen. Clonus (% control) [8]: 153.4 ± 47.1%
Latency to the first gen. Clonus [9]: 9.42 ± 2.89 min
# of mice/ with seizures [7]: 12/12
# of mice/ with seizures [9]: 12/10
